Source: patent US7199097B1, “Peptide fragments having cell death inhibitory activity” (Juridical Foundation The Chemo-Sero-Therapeutic Research …, priority 1998, dated 2007)
Non-standard residues stand in square brackets, D forms with d. Sec = N[C@@H](C[SeH])C(=O)O

What was measured:
Assay type in all cases: cell-based, human
Dami cells [1] = assay: Cell death induced by fatty acid in serum free culture of Dami cells; conditions: for induction of cell death: 10 μM, serum free culture in the absence of selenoprotein P; for effective concentration inhibiting cell death: in the presence of 4 μM linoleic acid
Protocol: (§1) To 1 ml Dami cells (1×10^6 cells/dish/3 ml), which can be subcultured in serum free medium SFO3 (manufactured by Sanko Jun-yaku K. K.) containing 0.05 μM 2ME and 0.1% BSA, was added 2 ml 1:2:2 mixed medium (SA medium) of RPMI 1640/D-MEM/F-12. The cells were cultured for three days and recovered for assay. The cells were washed twice with SA/0.05% fatty acid free BSA (manufactured by Wako Jun-yaku K. K.) and suspended at 3×10^4 cells/ml in the same medium containing 2 to 16 μM arachidonic acid, linoleic acid or linolenic acid. The cell suspension was added to a 96-well plate in each 198 μl for wells for sample addition or in each 100 μl for wells for serial dilution.
To the wells for sample addition was added each 2 μl of 100 μM assay sample and, after stirring, a serial dilution was made with the wells containing 100 μl cell suspension. The plate was incubated at 37° C. in CO2 incubator for 4 to 5 days.

Dami cells [2] = assay: Comparison with other antioxidants: cell death in serum free culture of Dami cells in the presence of HSA
Protocol: It was estimated to what extent vitamin E, known as being useful as an antioxidant to lipid oxidation, and catalase, acting for removal of hydrogen peroxide, could inhibit cell death induced in the assay system of the present invention while serum free culture in the presence of HSA.
as §1, with “added […]” for “added 2”, “with 50% PBS/SA/0.03% HSA” for “with SA/0.05% fatty acid free BSA”, “by SIGMA)” for “by Wako Jun-yaku K. K.)”, “suspended” for “suspended at 3×10^4 cells/ml”, “medium at 3×10^4 cells/ml.” for “medium containing 2 to 16 μM arachidonic acid, linoleic acid or linolenic acid.”, “each 190” for “each 198”
To the wells for sample addition was added each 10 μl of assay sample, i.e. 20 μM vitamin E, catalase or the selenoprotein P fragment and, after stirring, a serial dilution was made with the wells containing 100 μl cell suspension. The plate was incubated at 37° C. in CO2 incubator for 4 to 5 days followed by estimation. For estimation, a sample concentration necessary for cell death inhibition was compared to each other on Day 4 and thereafter. […] The selenoprotein P fragment could inhibit cell death up to 60 pM. From the fact that vitamin E did inhibit cell death in the assay system of the present invention, it was estimated that peroxidization of fatty acids bound to HSA (SIGMA) might be responsible for cell death induction. Moreover, it was expected that the selenoprotein P fragment, which inhibited cell death more effectively than vitamin E, would also act much more efficiently to events to which vitamin E was know to be effective.

Dami cells [3] = assay: Cell death-inhibitory activity in Dami cells, serum free culture with HSA, serial dilution
Excerpt: For screening factors having the cell death-inhibitory activity, a culture system needs to be established where cell death is induced. […] A diluted sample of active fractions may be added to this culture system to thereby estimate the cell death-inhibitory activity.
Based on the assay system as described above, the present inventors have aimed at components within the living body, especially those derived from blood, and thoroughly investigated for searching the activity of interest. […] For the purpose of quantification of the cell death-inhibitory activity as used herein, dilution of not more than 100-folds is indicated as “0” while in case of dilution of more than 100-folds, a figure of said dilution per se is used for indicating the activity.
To 1 ml Dami cells (described in Greenberg S. M. et al., Blood, vol. 72, p. 1968–1977 (1988); 1×10^6 cells/dish/3 ml), which can be subcultured in serum free medium SFO3 (manufactured by Sanko Jun-yaku K. K.) containing 0.05 μM 2ME and 0.1% BSA, was added 2 ml 1:2:2 mixed medium (SA medium) of RPMI 1640/D-MEM/F-12. The cells were cultured for three days and recovered for assay. The cells were washed twice with 50% PBS/SA/0.03% HSA (manufactured by SIGMA) and suspended in the same medium at 3×10^4 cells/ml. The cell suspension was added to a 96-well plate in each 200 μl for wells for sample addition or in each 100 μl for wells for serial dilution. To the wells for sample addition was added 2 μl assay sample and, after stirring, a serial dilution was made with the wells containing 100 μl cell suspension. The plate was incubated at 37° C. in CO2 incubator for 4 to 5 days followed by estimation.

## CCCCC/C=C\C/C=C\C/C=C\C/C=C\CCCCCC(=O)O [adrenic acid]
Dami cells [1]
  induction of cell death: induced cell death

## CCCCC/C=C\C/C=C\C/C=C\C/C=C\CCCC(=O)O [arachidonic acid]
Dami cells [1]
  induction of cell death: induced cell death

## CCCCC/C=C\C/C=C\C/C=C\CCCCCCC(=O)O [dihomo-γ-linolenic acid]
Dami cells [1]
  induction of cell death: induced cell death

## CCCCC/C=C\C/C=C\CCCCCCCC(=O)O [linoleic acid]
Dami cells [1]
  induction of cell death: induced cell death

## catalase
Dami cells [2]; serial dilution from 20 μM sample
  cell death-inhibitory activity (in words): no cell death-inhibitory activity

## docosadienoic acid
Dami cells [1]
  induction of cell death: induced cell death

## docosatrienoic acid
Dami cells [1]
  induction of cell death: induced cell death

## eicosadienoic acid
Dami cells [1]
  induction of cell death: induced cell death

## superoxide dismutase
Dami cells [3]; each 70 μM of the samples
  cell death-inhibitory activity (in words): some activity
  cell death-inhibitory activity relative to the peptide fragment of the present invention: about 1/100
Dami cells [3]; each 70 μM of the samples, listed as SOD
  cell death-inhibitory activity relative to the peptide fragment of the present invention: 1/100

## vitamin E
Dami cells [2]; 60 nM
  inhibition of cell death at 60 nM: could not
Dami cells [2]; Day 4 and thereafter, serial dilution
  sample concentration up to which cell death is inhibited: 125 nM
Dami cells [1]
  effective concentration inhibiting cell death: about 100 nM

B1: Full-length selenoprotein P: full-length selenoprotein P prepared from plasma with the antibody affinity column (protein)
chain: ESQDQSSLCKQPPAWSIRDQDPMLNSNGSVTVVALLQAS[Sec]YLCIIEASKLEDLRVKLKKEGYSNISYIVVNHQGISSRLKYTHLKNKVSEHIPVYQQEENQTDVWTLLNGSKDDFLIYDRCGRLVYHLGLPFSFLTFPYVEEAIKIAYCEKKCGNCSLTTLKDEDFCKRVSLATVDKTVETPSPHYHHEHHHNHGHQHLGSSELSENQQPGAPNAPTHPAPPGLHHHHKHKGQHRQGHPENRDMPASEDLQDLQKKLCRKRCINQLLCKLPTDSELAPRS[Sec]CCHCRHLIFEKTGSAIT[Sec]QCKENLPSLCS[Sec]QGLRAEENITESCQ[Sec]RLPPAA[Sec]QISQQLIPTEASAS[Sec]R[Sec]KNQAKK[Sec]E[Sec]PSN
modifications: ends and bridges not checked
Dami cells [3]; Table 3, activity per protein
  Specific activity: <2500
Dami cells [3]; Table 3, fold dilution up to which cells survive
  Activity: <100
Dami cells [3]; purified with anti-selenoprotein P antibody column
  cell death-inhibitory activity per proteins compared with the fragment: much lower
Dami cells [1]
  effective concentration inhibiting cell death: about 100 nM
